Assay results published in the supplement of paper PMC10307832.

Key:
Assay in all cases: relative viability (nuclei count vs DMSO), 5 days (fraction); higher = more cells survive
[1] = compound: Nc1ccn([C@@H]2O[C@H](CO)[C@@H](O)C2(F)F)c(=O)n1 [Gemcitabine] + CC(C)C[C@H](NC(=O)[C@H](Cc1ccccc1)NC(=O)c1cnccn1)B(O)O [Bortezomib] (partner 0.002 µM)
Method in brief: (§1)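 Five library-drug doses in √10 steps were combined with a fixed anchor-drug dose, or a single drug was given alone, by pin tool to lung cancer cell lines in 1536-well plates the day after seeding. Nuclei were stained and counted after 5 days. Relative viability is the nuclei count in treated wells over that in vehicle wells, taken as the median of duplicate plates.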

[2] = compound: Nc1ccn([C@@H]2O[C@H](CO)[C@@H](O)C2(F)F)c(=O)n1 [Gemcitabine] + CC(=O)Nc1cccc(-n2c(=O)n(C3CC3)c(=O)c3c(Nc4ccc(I)cc4F)n(C)c(=O)c(C)c32)c1 [Trametinib] (partner 0.02 µM)
Method in brief: as §1

[3] = compound: Nc1ccn([C@@H]2O[C@H](CO)[C@@H](O)C2(F)F)c(=O)n1 [Gemcitabine] + O=C(c1cc(Cc2n[nH]c(=O)c3ccccc23)ccc1F)N1CCN(C(=O)C2CC2)CC1 [Olaparib] (partner 8 µM)
Method in brief: as §1

[4] = compound: Nc1ccn([C@@H]2O[C@H](CO)[C@@H](O)C2(F)F)c(=O)n1 [Gemcitabine] + CS(=O)(=O)N1CCN(Cc2cc3nc(-c4cccc5[nH]ncc45)nc(N4CCOCC4)c3s2)CC1 [Pictilisib] (partner 1 µM)
Method in brief: as §1

Row | Cell Line | relative viability ([1]; first compound 0.001 µM) | relative viability ([1]; first compound 0.003162 µM) | relative viability ([1]; first compound 0.01 µM) | relative viability ([1]; first compound 0.03162 µM) | relative viability ([1]; first compound 0.1 µM) | relative viability ([2]; first compound 0.001 µM) | relative viability ([2]; first compound 0.003162 µM) | relative viability ([2]; first compound 0.01 µM) | relative viability ([2]; first compound 0.03162 µM) | relative viability ([2]; first compound 0.1 µM) | relative viability ([3]; first compound 0.001 µM) | relative viability ([3]; first compound 0.003162 µM) | relative viability ([3]; first compound 0.01 µM) | relative viability ([3]; first compound 0.03162 µM) | relative viability ([3]; first compound 0.1 µM) | relative viability ([4]; first compound 0.001 µM) | relative viability ([4]; first compound 0.003162 µM) | relative viability ([4]; first compound 0.01 µM) | relative viability ([4]; first compound 0.03162 µM) | relative viability ([4]; first compound 0.1 µM)
1 | NCI-H1734 | 1.08 | 0.862 | 0.199 | 0.157 | 0.102 | 0.705 | 0.44 | 0.193 | 0.135 | 0.1 | 0.535 | 0.348 | 0.183 | 0.111 | 0.102 | 0.455 | 0.387 | 0.233 | 0.151 | 0.113
2 | NCI-H1755 | 0.952 | 0.958 | 0.84 | 0.343 | 0.312 | 0.759 | 0.749 | 0.736 | 0.616 | 0.328 | 0.872 | 0.887 | 0.787 | 0.425 | 0.278 | 0.417 | 0.45 | 0.355 | 0.249 | 0.188
3 | NCI-H1792 | 1.08 | 0.925 | 0.308 | 0.133 | 0.093 | 0.414 | 0.183 | 0.0715 | 0.0564 | 0.0677 | 0.578 | 0.0978 | 0.0544 | 0.112 | 0.0454 | 0.238 | 0.226 | 0.111 | 0.0979 | 0.0699
4 | NCI-H1915 | 0.978 | 1 | 0.969 | 0.825 | 0.617 | 0.317 | 0.308 | 0.286 | 0.281 | 0.188 | 0.246 | 0.255 | 0.258 | 0.233 | 0.192 | 1.02 | 0.949 | 0.909 | 0.857 | 0.229
5 | NCI-H1975 | 0.385 | 0.401 | 0.207 | 0.198 | 0.155 | 0.305 | 0.447 | 0.367 | 0.124 | 0.135 | 0.755 | 0.78 | 0.433 | 0.179 | 0.139 | 0.315 | 0.282 | 0.229 | 0.168 | 0.136
6 | NCI-H1993 | 1.08 | 1.15 | 0.713 | 0.524 | 0.446 | 0.508 | 0.457 | 0.503 | 0.351 | 0.438 | 1.01 | 0.908 | 0.519 | 0.412 | 0.428 | 0.855 | 0.804 | 0.651 | 0.695 | 0.647
7 | NCI-H2009 | 1.06 | 0.586 | 0.133 | 0.111 | 0.0676 | 0.268 | 0.327 | 0.16 | 0.115 | 0.088 | 0.717 | 0.436 | 0.191 | 0.102 | 0.0738 | 0.872 | 0.419 | 0.157 | 0.128 | 0.101
